The record followed here is patent EP0584085B1, “ANTIBIOTIC CARBAPENEM DERIVATIVES” (ZENECA LIMITED, priority 1991, dated 1992).

Values after ≈ are worked out from the molar mass of the structure shown.

What all share (test): MIC by agar-dilution, Diagnostic Sensitivity Test agar
What all share (format): cell-based

In experiment [1] the test system is Serr.marcesens (421003). Particulars: inoculum 10^4 CFU/spot. From the text:
(§1) The following results were obtained for representative compounds on a standard in vitro test system using Diagnostic Sensitivity Test agar medium. The antibacterial activity is described in terms of the minimum inhibitory concentration (MIC) determined by the agar-dilution technique with an inoculum size of 10^4 CFU/spot.

In experiment [2] the test system is E.coli DCO (341098). The note with it: Escherichia coli, inoculum 10^4 CFU/spot.
Source text: as §1

The subject of experiment [3] is S.dublin (369001). The note with it: Salmonella enterica, inoculum 10^4 CFU/spot.
Source text: as §1

Experiment [4] relates to Pr.morganii (433001). Particulars: Morganella morganii, inoculum 10^4 CFU/spot.
Source text: as §1

Experiment [5] concerns Ent.cloacae P99^- (401054). Particulars: Enterobacter cloacae.
Source text: as §1

Experiment [6] concerns P. aeruginosa 18S (101024). The note with it: Pseudomonas aeruginosa, inoculum 10^4 CFU/spot.
Source text: as §1

For experiment [7], the system named is St.aureus 147N (601052). Particulars: Staphylococcus aureus, inoculum 10^4 CFU/spot.
Source text: as §1

Experiment [8] has as its system P.aeruginosa PU21 (101028). The note with it: Pseudomonas aeruginosa, inoculum 10^4 CFU/spot.
Source text: as §1

Experiment [9] deals with B. fragilis AMP R (542008). Particulars: Bacteroides fragilis, inoculum 10^4 CFU/spot.
Source text: as §1

Experiment [10] relates to Strep.pyogenes (681018). Particulars: Streptococcus pyogenes, inoculum 10^4 CFU/spot.
Source text: as §1

As to `C[C@@H](O)[C@H]1C(=O)N2C(C(=O)O)=C(S[C@@H]3CN[C@H](C(=O)Nc4cc(O)c(O)c(C#N)c4)C3)[C@H](C)[C@H]12` [Example 2, (1R,5S,6S,8R,2'S,4'S)-2-(2-(5-Cyano-3,4-dihydroxyphenylcarbamoyl)pyrrolidin-4-ylthio)-6-(1-hydroxyethyl)-1-methyl-carbapenem-3-carboxylic acid], the MIC (commonly the least concentration at which growth counts as inhibited) in experiment [1] worked out at 0.125 µg/mL (≈ 0.256 µM); in [2] it was 0.015 µg/mL (≈ 0.0307 µM); in experiment [3], 8 ng/mL (≈ 0.0164 µM); in experiment [4], 0.125 µg/mL (≈ 0.256 µM); in experiment [5], 0.015 µg/mL (≈ 0.0307 µM); in experiment [6] it was 0.06 µg/mL (≈ 0.123 µM). Also, the MIC in [7] came to 0.25 µg/mL (≈ 0.512 µM); in experiment [8] it was 0.25 µg/mL (≈ 0.512 µM); in [9], 0.25 µg/mL (≈ 0.512 µM); in experiment [10] it was 8 ng/mL (≈ 0.0164 µM).
